In patent publication US20250262201A1, “COMPOUNDS AND METHODS USEFUL FOR STABILIZING PHENYLALANINE HYDROXYLASE MUTATIONS” (Agios Pharmaceuticals, Inc., priority 2022, published 2025):

What follows are compounds tested against T1, human PAH with the R408W mutation (Homo sapiens, UniProt P00439, R408W) (assay: Cell Based Phenylalanine Flux Assay). Conditions: A375 R408W cells, 24 hrs with compound, then 20 μM sepiapterin and 800 μM 13C9,15N-Phenylalanine for 4 hours; 13C-Tyrosine by LC-MS; average where tested multiple times.
T1 construct: expressed in transfected cells
T1 sequence (P00439 1-452 R408W): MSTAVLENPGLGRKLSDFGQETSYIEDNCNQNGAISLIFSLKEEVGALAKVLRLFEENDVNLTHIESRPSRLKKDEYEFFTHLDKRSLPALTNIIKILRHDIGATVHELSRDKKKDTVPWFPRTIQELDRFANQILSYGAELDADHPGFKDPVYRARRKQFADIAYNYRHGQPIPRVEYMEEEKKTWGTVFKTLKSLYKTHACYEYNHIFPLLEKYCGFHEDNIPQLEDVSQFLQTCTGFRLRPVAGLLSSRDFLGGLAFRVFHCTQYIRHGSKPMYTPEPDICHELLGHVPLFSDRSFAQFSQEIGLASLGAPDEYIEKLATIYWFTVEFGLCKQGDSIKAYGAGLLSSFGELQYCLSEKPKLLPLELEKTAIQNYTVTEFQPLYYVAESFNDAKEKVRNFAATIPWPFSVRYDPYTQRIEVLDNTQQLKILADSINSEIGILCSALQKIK
Parameters: scale not given here

AC50	SMILES
E, E	O=C(c1ocnc1C(F)F)N1CCc2[nH]cnc2C1c1ncc2ccccc2n1 (stereo not drawn)

Same assay, conditions: A375 R408W cells, 24 hrs with compound, then 20 μM sepiapterin and 800 μM 13C9,15N-Phenylalanine for 4 hours; 13C-Tyrosine by LC-MS; average where tested multiple times; read-out: AC50

AC50	SMILES
> 5 µM	O=C(C1CN(CC(F)(F)F)C1)N1CCc2[nH]cnc2C1c1ccc2ccccc2n1 (stereo not drawn)
1 to 5 µM	CC(C)(O)c1ncc(C(=O)N2CCc3[nH]cnc3C2c2cn3ccccc3n2)s1 (stereo not drawn)
> 5 µM	O=C(CCc1cncs1)N1CCc2[nH]cnc2C1c1cn2ccccc2n1 (stereo not drawn)
> 5 µM	CC(C)(O)c1cc(C(=O)N2CCc3[nH]cnc3C2c2ccc3ccccc3n2)on1 (stereo not drawn)
1 to 5 µM	O=C(c1cnn(-c2ccccn2)c1Cl)N1CCc2[nH]cnc2C1c1ccc2ccccc2n1 (stereo not drawn)
1 to 5 µM	O=C(c1cn[nH]c1)N1CCc2[nH]cnc2C1c1ccc2ccccc2n1 (stereo not drawn)
> 5 µM	O=C(c1nnc(-c2ccccn2)o1)N1CCCc2[nH]cnc2C1c1cn2ccccc2n1 (stereo not drawn)

Same assay, conditions: A375 cells expressing human R408W PAH; 24 hrs compound incubation; 13C-Tyrosine by LC-MS; average where tested multiple times; read-out: AC50

AC50	SMILES
0.5 to 1 µM	FC(F)c1nnc(N2CCc3[nH]cnc3[C@H]2c2cn3ccccc3n2)o1 [Example 230, (R)-2-(difluoromethyl)-5-(4-(imidazo[1,2-a]pyridin-2-yl)-6,7-dihydro-1H-imidazo[4,5-c]pyridin-5(4H)-yl)-1,3,4-oxadiazole]
1 to 5 µM	O=C(CC1CC1)N1CCc2[nH]cnc2C1c1ccc2ccccc2n1 (stereo in doubt) [Example 42, (S)-2-cyclopropyl-1-(4-(quinolin-2-yl)-6,7-dihydro-1H-imidazo[4,5-c]pyridin-5(4H)-yl)ethanone]
> 5 µM	O=C(c1cnc(-c2cnn(CC(F)(F)F)c2)o1)N1CCc2[nH]cnc2[C@@H]1c1cc2ccccc2cn1 [Example 304, (S)-(4-(isoquinolin-3-yl)-6,7-dihydro-1H-imidazo[4,5-c]pyridin-5(4H)-yl)(2-(1-(2,2,2-trifluoroethyl)-1H-pyrazol-4-yl)oxazol-5-yl)methanone]
1 to 5 µM	O=C(c1cnc(-c2ccc(F)cn2)s1)N1CCc2[nH]cnc2[C@@H]1c1cc2ccccc2cn1 [Example 313, (S)-(2-(5-fluoropyridin-2-yl)thiazol-5-yl)(4-(isoquinolin-3-yl)-6,7-dihydro-1H-imidazo[4,5-c]pyridin-5(4H)-yl)methanone]
> 5 µM	Cn1cc(-c2nnc(C(=O)N3CCc4[nH]cnc4[C@@H]3c3cc4ccccc4cn3)o2)cn1 [Example 323, (S)-(4-(isoquinolin-3-yl)-6,7-dihydro-1H-imidazo[4,5-c]pyridin-5(4H)-yl)(5-(1-methyl-1H-pyrazol-4-yl)-1,3,4-oxadiazol-2-yl)methanone]
0.5 to 1 µM	O=C(c1nnc(C2CC2)o1)N1CCc2[nH]cnc2[C@H]1c1ncc2ccccc2n1 [Example 139, (S)-(5-cyclopropyl-1,3,4-oxadiazol-2-yl)(4-(quinazolin-2-yl)-6,7-dihydro-1H-imidazo[4,5-c]pyridin-5(4H)-yl)methanone]
< 0.5 µM	O=C(c1cnn2cc(-c3cnccn3)ccc12)N1CCc2[nH]cnc2[C@H]1c1cc2ccccc2cn1 [Example 477, (R)-(4-(isoquinolin-3-yl)-6,7-dihydro-1H-imidazo[4,5-c]pyridin-5(4H)-yl)(6-(pyrazin-2-yl)pyrazolo[1,5-a]pyridin-3-yl)methanone]
0.5 to 1 µM	O=C(c1nnc(-c2cnccn2)o1)N1CCc2[nH]cnc2[C@H]1c1ncc2ccccc2n1 [Example 192, (S)-(5-(pyrazin-2-yl)-1,3,4-oxadiazol-2-yl)(4-(quinazolin-2-yl)-6,7-dihydro-1H-imidazo[4,5-c]pyridin-5(4H)-yl)methanone]
> 5 µM	Cc1nn(C)cc1-c1nnc(C(=O)N2CCc3[nH]cnc3[C@@H]2c2ncc3ccccc3n2)o1 [Example 199, (R)-(5-(1,3-dimethyl-1H-pyrazol-4-yl)-1,3,4-oxadiazol-2-yl)(4-(quinazolin-2-yl)-6,7-dihydro-1H-imidazo[4,5-c]pyridin-5(4H)-yl)methanone]
< 0.5 µM	N#Cc1ncoc1C(=O)N1CCc2[nH]cnc2[C@H]1c1ncc2ccccc2n1 [Example 147, (S)-5-(4-(quinazolin-2-yl)-4,5,6,7-tetrahydro-1H-imidazo[4,5-c]pyridine-5-carbonyl)oxazole-4-carbonitrile]
